Measurements published in patent US20260265233A1, “BENZOTHIOPHENE DERIVATIVES AS RXFP1 AGONISTS” (BRISTOL-MYERS SQUIBB COMPANY, priority 2021, published 2026).

Target: T1, human RXFP1 (Homo sapiens, UniProt Q9HBX9)
T1 construct: expressed in transfected cells
T1 sequence (Q9HBX9 1-757): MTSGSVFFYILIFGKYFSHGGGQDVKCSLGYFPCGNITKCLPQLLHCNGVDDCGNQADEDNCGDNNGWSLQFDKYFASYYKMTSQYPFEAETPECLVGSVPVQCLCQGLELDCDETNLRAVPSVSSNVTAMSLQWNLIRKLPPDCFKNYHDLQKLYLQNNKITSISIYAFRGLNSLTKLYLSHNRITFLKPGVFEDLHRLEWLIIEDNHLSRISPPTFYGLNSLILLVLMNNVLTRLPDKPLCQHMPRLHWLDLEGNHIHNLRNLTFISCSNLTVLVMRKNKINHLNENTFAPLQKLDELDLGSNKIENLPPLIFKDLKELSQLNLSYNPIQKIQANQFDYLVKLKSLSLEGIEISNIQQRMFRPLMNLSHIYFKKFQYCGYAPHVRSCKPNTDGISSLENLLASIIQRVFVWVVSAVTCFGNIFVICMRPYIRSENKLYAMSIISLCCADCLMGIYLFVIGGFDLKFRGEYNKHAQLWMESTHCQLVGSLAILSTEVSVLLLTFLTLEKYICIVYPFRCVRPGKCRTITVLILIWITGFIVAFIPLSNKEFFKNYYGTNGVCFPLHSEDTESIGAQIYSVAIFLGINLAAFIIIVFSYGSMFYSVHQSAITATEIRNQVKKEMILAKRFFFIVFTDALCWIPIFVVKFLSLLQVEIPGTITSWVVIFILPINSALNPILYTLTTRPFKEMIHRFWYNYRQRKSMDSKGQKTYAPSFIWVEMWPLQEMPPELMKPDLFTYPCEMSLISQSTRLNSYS
Assay: hRXFP1 HEK293 cAMP assay (HTRF)
Assay type: cell-based
Details: HEK293 cells stably expressing human RXFP1; 30 min at rt; intracellular cAMP by HTRF
Outline: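 Agonism is measured as cAMP by HTRF, quantified from a standard curve via the 665/590 nm ratio and fitted with a four-parameter logistic equation. Compounds (0.010 nM to 50 μM final, 2% DMSO) were applied for 30 min at rt to human RXFP1-expressing HEK293 cells in assay buffer containing 0.5 mM IBMX.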

In order of falling EC50:
1. COc1ccc(C2=NOC(CO)C2)cc1C(=O)Nc1c(C(=O)Nc2ccc(F)c(C(F)(F)F)c2)sc2cc(C(F)(F)F)ccc12 (single isomer, unassigned) [Example 249, N-(4-fluoro-3-(trifluoromethyl)phenyl)-3-(5-(5-(hydroxymethyl)-4,5-dihydroisoxazol-3-yl)-2-methoxy-benzamido)-6-(trifluoromethyl) benzo[b] thiophene-2-carboxamide]  3700 nM
2. COc1ccc(C2=NOC3CC(NC(=O)CO)CC23)cc1C(=O)Nc1c(C(=O)Nc2ccc(F)c(C(F)(F)F)c2)sc2cc(C(F)(F)F)ccc12 (single isomer, unassigned) [Example 264, N-[4-fluoro-3-(trifluoromethyl)phenyl]-3-{5-[5-(2-hydroxyacetamido)-3aH,4H,5H,6H, 6aH-cyclopenta[d] [1,2]oxazol-3-yl]-2-methoxy-benzamido}-6-(trifluoromethyl)-1-benzothiophene-2-carboxamide]  3140 nM
3. COc1ccc(C2CC2C(C)(C)O)cc1C(=O)Nc1c(C(=O)Nc2ccc(F)c(C(F)(F)F)c2)sc2cc(C(F)(F)F)ccc12 (single isomer, unassigned) [Example 160, N-[4-fluoro-3-(trifluoromethyl)phenyl]-3-{5-[2-(2-hydroxypropan-2-yl)cyclopropyl]-2-methoxy-benzamido}-6-(trifluoromethyl)-1-benzothiophene-2-carboxamide]  2300 nM
4. COc1ccc(-c2cc(C(=O)O)ccc2F)cc1C(=O)Nc1c(C(=O)Nc2ccc(F)c(C(F)(F)F)c2)sc2ccc(C(F)(F)F)cc12 [Example 214, 6-fluoro-3′-((2-((4-fluoro-3-(trifluoromethyl)phenyl)carbamoyl)-5-(trifluoromethyl)benzo[b]thiophen-3-yl)carbamoyl)-4′-methoxy-[1,1′-biphenyl]-3-carboxylic acid]  2150 nM
5. COc1ccc(C2CCCC(NC3COC3)C2)cc1C(=O)Nc1c(C(=O)Nc2ccc(F)c(C(F)(F)F)c2)sc2cc(C(F)(F)F)ccc12 (single isomer, unassigned) [Example 63, N-(4-fluoro-3-(trifluoromethyl)phenyl)-3-(2-methoxy-5-(3-(oxetan-3-ylamino)cyclohexyl)benzamido)-6-(trifluoromethyl) benzo[b] thiophene-2-carboxamide]  2060 nM
6. COc1ccc(N2CCCC(C(=O)NCCO)C2)cc1C(=O)Nc1c(C(=O)Nc2ccc(F)c(C(F)(F)F)c2)sc2cc(C(F)(F)F)ccc12 (single isomer, unassigned) [Example 230, 1-(3-((2-((4-fluoro-3-(trifluoromethyl)phenyl)carbamoyl)-6-(trifluoromethyl)benzo[b]thiophen-3-yl)carbamoyl)-4-methoxyphenyl)-N-(2-hydroxyethyl) piperidine-3-carboxamide]  1400 nM
7. COc1ccc(C2CCCC(C)(O)C2)cc1C(=O)Nc1c(C(=O)Nc2ccc(F)c(C(F)(F)F)c2)sc2cc(C(F)(F)F)ccc12 (single isomer, unassigned) [Example 34, N-(4-fluoro-3-(trifluoromethyl)phenyl)-3-(5-(3-hydroxy-3-methylcyclohexyl)-2-methoxybenzamido)-6-(trifluoromethyl)benzo[b]thiophene-2-carboxamide]  850 nM
8. COc1ccc(C2CCCC(C)(O)C2)cc1C(=O)Nc1c(C(=O)Nc2ccc(F)c(C(F)(F)F)c2)sc2cc(C(F)(F)F)ccc12 (single isomer, unassigned) [Example 35, N-(4-fluoro-3-(trifluoromethyl)phenyl)-3-(5-(3-hydroxy-3-methylcyclohexyl)-2-methoxybenzamido)-6-(trifluoromethyl)benzo[b]thiophene-2-carboxamide]  794 nM
9. COc1ccc(C2CCCN(C3COC3)C2)cc1C(=O)Nc1c(C(=O)Nc2ccc(F)c(C(F)(F)F)c2)sc2cc(C(F)(F)F)ccc12 (centres unmarked) [Example 97, N-(4-fluoro-3-(trifluoromethyl)phenyl)-3-(2-methoxy-5-(1-(oxetan-3-yl)piperidin-3-yl)benzamido)-6-(trifluoromethyl) benzo[b] thiophene-2-carboxamide]  607 nM
10. COc1ccc(C2CCN(C(=O)CCO)C2)cc1C(=O)Nc1c(C(=O)Nc2ccc(F)c(C(F)(F)F)c2)sc2cc(C(F)(F)F)ccc12 (centres unmarked) [Example 137, N-(4-fluoro-3-(trifluoromethyl)phenyl)-3-(5-(1-(3-hydroxypropanoyl)pyrrolidin-3-yl)-2-methoxy-benzamido)-6-(trifluoromethyl) benzo[b] thiophene-2-carboxamide]  591 nM
11. COc1ccc(C#CC(C)(C)O)cc1C(=O)Nc1c(C(=O)Nc2ccc(F)c(C(F)(F)F)c2)sc2cc(C(F)(F)F)ccc12 [Example 124, N-(4-fluoro-3-(trifluoromethyl)phenyl)-3-(5-(3-hydroxy-3-methylbut-1-yn-1-yl)-2-methoxybenz-amido)-6-(trifluoromethyl) benzo[b] thiophene-2-carboxamide]  560 nM
12. COc1ccc(C2CCC(O)CC2)cc1C(=O)Nc1c(C(=O)Nc2ccc(F)c(C(F)(F)F)c2)sc2cc(C(F)(F)F)ccc12 (single isomer, unassigned) [Example 76, N-(4-fluoro-3-(trifluoromethyl)phenyl)-3-(5-(4-hydroxycyclo-hexyl)-2-methoxy-benzamido)-6-(trifluoromethyl) benzo[b] thiophene-2-carboxamide]  498 nM
13. COc1ccc(S(=O)(=O)N2CCC[C@@H](NC(=O)CCO)C2)cc1C(=O)Nc1c(C(=O)Nc2ccc(F)c(C(F)(F)F)c2)sc2cc(C(F)(F)F)ccc12 [Example 189, (R)-N-(4-fluoro-3-(trifluoromethyl)phenyl)-3-(5-((3-(3-hydroxy-propanamido)piperidin-1-yl)sulfonyl)-2-methoxy-benzamido)-6-(trifluoromethyl) benzo[b] thiophene-2-carboxamide]  491 nM
14. COc1ccc(C(=O)N2CCO[C@@H](CO)C2)cc1C(=O)Nc1c(C(=O)Nc2ccc(F)c(C(F)(F)F)c2)sc2cc(C(F)(F)F)ccc12 [Example 129, (R)-N-(4-fluoro-3-(trifluoromethyl)phenyl)-3-(5-(2-(hydroxymethyl)morpholine-4-carbonyl)-2-methoxy-benzamido)-6-(trifluoromethyl) benzo[b] thiophene-2-carboxamide]  444 nM
15. COc1ccc(C(=O)N2CC[C@H](O)C2)cc1C(=O)Nc1c(C(=O)Nc2ccc(F)c(C(F)(F)F)c2)sc2cc(C(F)(F)F)ccc12 [Example 174, (S)-N-(4-fluoro-3-(trifluoromethyl)phenyl)-3-(5-(3-hydroxy-pyrrolidine-1-carbonyl)-2-methoxy-benzamido)-6-(trifluoromethyl) benzo[b] thiophene-2-carboxamide]  405 nM
16. COc1ccc(C2CC2C(=O)O)cc1C(=O)Nc1c(C(=O)Nc2ccc(F)c(C(F)(F)F)c2)sc2cc(C(F)(F)F)ccc12 (centres unmarked) [Example 46, 2-(3-((2-((4-fluoro-3-(trifluoromethyl)phenyl)carbamoyl)-6-(trifluoromethyl)benzo[b]thiophen-3-yl)carbamoyl)-4-methoxyphenyl) cyclopropane-1-carboxylic acid]  295 nM
17. COc1ccc(C(=O)N2CCC(CO)CC2)cc1C(=O)Nc1c(C(=O)Nc2ccc(F)c(C(F)(F)F)c2)sc2cc(C(F)(F)F)ccc12 [Example 176, N-(4-fluoro-3-(trifluoromethyl)phenyl)-3-(5-(4-(hydroxymethyl)piperidine-1-carbonyl)-2-methoxy-benzamido)-6-(trifluoromethyl) benzo[b] thiophene-2-carboxamide]  279 nM
18. COc1ccc(-c2cccc(NS(C)(=O)=O)c2)cc1C(=O)Nc1c(C(=O)Nc2ccc(F)c(C(F)(F)F)c2)sc2cc(C(F)(F)F)ccc12 [Example 123, N-(4-fluoro-3-(trifluoromethyl)phenyl)-3-(4-methoxy-3′-(methylsulfon-amido)-[1,1′-biphenyl]-3-carboxamido)-6-(trifluoromethyl) benzo[b] thiophene-2-carboxamide]  236 nM
19. COc1ccc(C(=O)N2CC(CO)C2)cc1C(=O)Nc1c(C(=O)Nc2ccc(F)c(C(F)(F)F)c2)sc2cc(C(F)(F)F)ccc12 [Example 177, N-(4-fluoro-3-(trifluoromethyl)phenyl)-3-(5-(3-(hydroxymethyl)azetidine-1-carbonyl)-2-methoxy-benzamido)-6-(trifluoromethyl) benzo[b] thiophene-2-carboxamide]  147 nM
20. COc1ccc(C2CCCN(C(=O)C(C)(C)CO)C2)cc1C(=O)Nc1c(C(=O)Nc2ccc(F)c(C(F)(F)F)c2)sc2cc(C(F)(F)F)ccc12 (single isomer, unassigned) [Example 93, N-[4-fluoro-3-(trifluoromethyl)phenyl]-3-{5-[1-(3-hydroxy-2,2-dimethyl-propanoyl)piperidin-3-yl]-2-methoxy-benzamido}-6-(trifluoromethyl)-1-benzothiophene-2-carboxamide]  48.4 nM
